Results on 3 compounds are retold here after patent US8252737B2, “Antimicrobial peptides and methods of use” (priority 2004, dated 2012).

The subject of data set [1] is E. coli (UB 1005 wt and DC2 abs). The conditions noted are these: for MIC (μg/ml) E. coli C500 abs: antibiotic sensitive strain; for MIC (μg/ml) E. coli C498 wt: wild-type lab strain.
In data set [2] the test system is Bacillus subtilis.
Data set [3] deals with Staphylococcus epidermidis.
The subject of data set [4] is human red blood cells. Put plainly: Hemolysis time study (0-8 hours, 8-500 μg/ml). The note with it: 500 μg/ml, after 1 hour incubation. On the procedure: The percent hemolysis of cells was determined spectrophotometrically by comparison with the complete hemolysis of cells in water.
[…] Peptide samples were diluted 2 fold in order to determine the concentration that produced no hemolysis. […] Hemoglobin release was determined spectrophotometrically at 562 nm. The hemolytic titer was the highest 2-fold dilution of the peptide that still caused release of hemoglobin from erythrocytes. The control for no release of hemoglobin was a sample of 1% erythrocytes without any peptide added. […] Peptide samples were diluted 2 fold in order to determine the concentration that produced no hemolysis. […] Hemoglobin release was determined spectrophotometrically at 570 nm. The hemolytic titer was the highest 2-fold dilution of the peptide that still caused release of hemoglobin from erythrocytes. The control for no release of hemoglobin was a sample of 1% erythrocytes without any peptide added.

Data set [5] is described as follows: CD temperature denaturation study of peptide V681. The note with it: 50% TFE in 0.05% aq. TFA (pH 2); 50% of α-helical structure denatured. Format: physicochemical. On the procedure: We next used temperature profiling during RP-HPLC to determine the self-association ability of the various analogs of V681 which would occur through interaction of the non-polar faces of these amphipathic α-helices. […] In order to investigate the stability of V681 in a hydrophobic environment, we carried out a temperature denaturation study in solution, as monitored by circular dichroism spectroscopy. […]
CD Temperature Denaturation Study of Peptide V681—The native peptide V681 was dissolved in 0.05% aqueous TFA containing 50% TFE, pH 2, loaded into a 0.02 cm fused silica cell and peptide ellipticity scanned from 190 to 250 nm at temperatures of 5, 15, 25, 35, 45, 55, 65 and 80° C. […] ([θ]t−[θ]u)/([θ]5−[θ]u) was calculated and plotted against temperature in order to obtain the thermal melting profiles, where [θ]5 and [θ]u represent the molar ellipticity values for the fully folded and fully unfolded species, respectively. [θ]u was determined in the presence of 8M urea with a value of 1500 deg cm^2 dmol^−1 to represent a totally random coil state (31). The melting temperature (Tm) was calculated as the temperature at which the α-helix was 50% denatured (([θ]t−[θ]u)/([θ]5−[θ]u)=0.5) and the values were taken as a measure of α-helix stability.

Converted amounts (≈) assume the structure as drawn. Where two headings read alike, the source gives them in different places.

Consider `CC[C@H](C)[C@H](NC(=O)[C@H](C)NC(=O)[C@H](CCCCN)NC(=O)[C@H](CC(C)C)NC(=O)[C@H](C)NC(=O)[C@@H](NC(=O)[C@H](Cc1cnc[nH]1)NC(=O)[C@H](CC(C)C)NC(=O)[C@@H](NC(=O)[C@@H](NC(=O)[C@H](CCCCN)NC(=O)[C@H](CCCCN)NC(=O)[C@H](C)NC(=O)[C@H](CO)NC(=O)[C@H](CCCCN)NC(=O)[C@H](Cc1ccccc1)NC(=O)[C@@H](NC(=O)[C@H](CCCCN)NC(=O)[C@H](CC(C)C)NC(=O)[C@H](Cc1ccccc1)NC(=O)[C@H](CO)NC(=O)[C@H](CCCCN)NC(=O)[C@H](Cc1c[nH]c2ccccc12)NC(=O)[C@H](CCCCN)NC(C)=O)[C@@H](C)O)[C@@H](C)O)C(C)C)[C@@H](C)O)C(=O)N[C@@H](CO)C(=O)N[C@@H](CO)C(N)=O` [NKL], for which, in data set [1], the “MIC (μg/ml) E. coli C500 abs” value was 3.1 µg/mL (≈ 1.04 µM) and the “MIC (μg/ml) E. coli C498 wt” value came to 3.1 µg/mL (≈ 1.04 µM). The “MIC (μg/ml) St C587 wt” value (Salmonella typhimurium wild-type lab strain) is 6.3 µg/mL (≈ 2.11 µM). Moreover, the “MIC (μg/ml) B. subtilis C971 wt” value in data set [2] was determined as 3.1 µg/mL (≈ 1.04 µM). Besides, the “MIC (μg/ml) S. epidermidis C621 wt” value in data set [3] came to 6.3 µg/mL (≈ 2.11 µM).
On to `CC[C@H](C)[C@H](NC(=O)[C@H](C)NC(=O)[C@H](CCCCN)NC(=O)[C@H](CC(C)C)NC(=O)[C@H](C)NC(=O)[C@@H](NC(=O)[C@H](Cc1c[nH]cn1)NC(=O)[C@H](CC(C)C)NC(=O)[C@@H](NC(=O)[C@@H](NC(=O)[C@H](CCCCN)NC(=O)[C@@H](NC(=O)[C@H](C)NC(=O)[C@H](CO)NC(=O)[C@H](CCCCN)NC(=O)[C@H](Cc1ccccc1)NC(=O)[C@@H](NC(=O)[C@H](CCCCN)NC(=O)[C@H](CC(C)C)NC(=O)[C@H](Cc1ccccc1)NC(=O)[C@H](CO)NC(=O)[C@H](CCCCN)NC(=O)[C@H](Cc1c[nH]c2ccccc12)NC(=O)[C@H](CCCCN)NC(C)=O)[C@@H](C)O)C(C)C)[C@@H](C)O)C(C)C)[C@@H](C)O)C(=O)N[C@@H](CO)C(=O)N[C@@H](CO)C(N)=O` [Peptide V681, reference compound], for which, in data set [1], the “MIC (μg/ml) E. coli C500 abs” value is 3.1 µg/mL (≈ 1.05 µM) and the “MIC (μg/ml) E. coli C498 wt” value is 6.3 µg/mL (≈ 2.13 µM). The “MIC (μg/ml) St C587 wt” value (C610 abs) came to 12.5 µg/mL (≈ 4.22 µM). Besides, the “MIC (μg/ml) B. subtilis C971 wt” value in data set [2] came to 3.1 µg/mL (≈ 1.05 µM). In addition, the “MIC (μg/ml) S. epidermidis C621 wt” value in data set [3] turned out to be 6.3 µg/mL (≈ 2.13 µM). For the same compound, the “hemolysis of human red blood cells” value in data set [4] worked out at 100%. Moreover, the “transition temperature Tm” value in data set [5] amounted to 79.3 °C.
With `CC[C@H](C)[C@H](NC(=O)[C@H](C)NC(=O)[C@H](CCCCN)NC(=O)[C@H](CC(C)C)NC(=O)[C@H](C)NC(=O)[C@@H](NC(=O)[C@H](Cc1c[nH]cn1)NC(=O)[C@H](CC(C)C)NC(=O)[C@@H](NC(=O)[C@@H](NC(=O)[C@H](CCCCN)NC(=O)[C@@H](C)NC(=O)[C@H](C)NC(=O)[C@H](CO)NC(=O)[C@H](CCCCN)NC(=O)[C@H](Cc1ccccc1)NC(=O)[C@@H](NC(=O)[C@H](CCCCN)NC(=O)[C@H](CC(C)C)NC(=O)[C@H](Cc1ccccc1)NC(=O)[C@H](CO)NC(=O)[C@H](CCCCN)NC(=O)[C@H](Cc1c[nH]c2ccccc12)NC(=O)[C@H](CCCCN)NC(C)=O)[C@@H](C)O)[C@@H](C)O)C(C)C)[C@@H](C)O)C(=O)N[C@@H](CO)C(=O)N[C@@H](CO)C(N)=O` [NAD], in data set [1], the “MIC (μg/ml) E. coli C500 abs” value was 1.6 µg/mL (≈ 0.545 µM) and the “MIC (μg/ml) E. coli C498 wt” value was found to be 3.1 µg/mL (≈ 1.06 µM). Moreover, the “MIC (μg/ml) St C587 wt” value (C610 abs) is 12.5 µg/mL (≈ 4.26 µM). For the same compound, the “MIC (μg/ml) B. subtilis C971 wt” value in data set [2] stood at 3.1 µg/mL (≈ 1.06 µM). Further, in data set [3], the “MIC (μg/ml) S. epidermidis C621 wt” value turned out to be 1.6 µg/mL (≈ 0.545 µM).
